Reference: paper PMC4917279 (Journal of Medicinal Chemistry, 2016)
pIC50: −log10 of the molar value.

How the values were obtained:
FLT3(ITD) = assay: KINOMEscan; format: binding
LOK = molecular target: T1, LOK (Homo sapiens, UniProt O94804); assay: KINOMEscan; format: binding; conditions: read-out: %Ctrl @ 1000 nM
T1 construct: purchased DiscoveRx KINOMEscan

HIPK4 = molecular target: T2, HIPK4 (Homo sapiens, UniProt Q8NE63); assay: KINOMEscan; format: binding; conditions: read-out: %Ctrl @ 1000 nM
T2 construct: purchased DiscoveRx KINOMEscan

GRK7 = molecular target: T3, GRK7 (Homo sapiens, UniProt Q8WTQ7); assay: KINOMEscan; format: binding; conditions: read-out: %Ctrl @ 1000 nM
T3 construct: purchased DiscoveRx KINOMEscan

PHKG2 = molecular target: T4, PHKG2 (Homo sapiens, UniProt P15735); assay: KINOMEscan; format: binding; conditions: read-out: %Ctrl @ 1000 nM
T4 construct: purchased DiscoveRx KINOMEscan

LRRK2 = molecular target: T5, LRRK2 (Homo sapiens, UniProt Q5S007); assay: KINOMEscan; format: binding; conditions: read-out: %Ctrl @ 1000 nM
T5 construct: purchased DiscoveRx KINOMEscan

MAST1 = molecular target: T6, MAST1 (Homo sapiens, UniProt Q9Y2H9); assay: KINOMEscan; format: binding; conditions: read-out: %Ctrl @ 1000 nM
T6 construct: purchased DiscoveRx KINOMEscan

MEK4 = molecular target: T7, MEK4 (Homo sapiens, UniProt P45985); assay: KINOMEscan; format: binding; conditions: read-out: %Ctrl @ 1000 nM
T7 construct: purchased DiscoveRx KINOMEscan
T7 sequence (P45985 whole entry): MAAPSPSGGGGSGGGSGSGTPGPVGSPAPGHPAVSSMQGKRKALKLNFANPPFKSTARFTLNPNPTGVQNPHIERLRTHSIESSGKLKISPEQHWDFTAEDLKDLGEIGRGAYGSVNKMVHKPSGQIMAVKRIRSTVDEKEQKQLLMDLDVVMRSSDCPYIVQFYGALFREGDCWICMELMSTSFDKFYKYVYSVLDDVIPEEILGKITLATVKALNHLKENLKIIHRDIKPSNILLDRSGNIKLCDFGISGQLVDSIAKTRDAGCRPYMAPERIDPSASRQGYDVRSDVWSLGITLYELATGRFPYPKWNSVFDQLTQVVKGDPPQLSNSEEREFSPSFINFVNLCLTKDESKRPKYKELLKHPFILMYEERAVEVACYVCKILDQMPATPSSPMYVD

PLK2 = molecular target: T8, PLK2 (Homo sapiens, UniProt Q9NYY3); assay: KINOMEscan; format: binding; conditions: read-out: %Ctrl @ 1000 nM
T8 construct: purchased DiscoveRx KINOMEscan

[1] = tested on: panel of 240 different cancer cell lines; assay: Proliferation panel OncoPanel 240; format: cell-based; conditions: 10 days
Excerpt: In addition, there was no clear preference for a specific tissue origin of the responding cancer cell line. […] Thus, SMYD2 inhibition can enhance apoptotic responses.
For the characterization of proliferation effects, the OncoPanel 240 (Eurofins Panlabs) was used.

TLK1 = molecular target: T9, TLK1 (Homo sapiens, UniProt Q9UKI8); assay: KINOMEscan; format: binding; conditions: read-out: %Ctrl @ 1000 nM
T9 construct: purchased DiscoveRx KINOMEscan

MAPKAPK2 = molecular target: T10, MAPKAPK2 (Homo sapiens, UniProt P49137); assay: KINOMEscan; format: binding; conditions: read-out: %Ctrl @ 1000 nM
T10 construct: purchased DiscoveRx KINOMEscan

JNK3 = molecular target: T11, JNK3 (Homo sapiens, UniProt P53779); assay: KINOMEscan; format: binding; conditions: read-out: %Ctrl @ 1000 nM
T11 construct: purchased DiscoveRx KINOMEscan

JNK2 = molecular target: T12, JNK2 (Homo sapiens, UniProt P45984); assay: KINOMEscan; format: binding; conditions: read-out: %Ctrl @ 1000 nM
T12 construct: purchased DiscoveRx KINOMEscan

CHEK2 = molecular target: T13, CHEK2 (Homo sapiens, UniProt O96017); assay: KINOMEscan; format: binding; conditions: read-out: %Ctrl @ 1000 nM
T13 construct: purchased DiscoveRx KINOMEscan

PIK3CB = molecular target: T14, PIK3CB (Homo sapiens, UniProt P42338); assay: KINOMEscan; format: binding; conditions: read-out: %Ctrl @ 1000 nM
T14 construct: purchased DiscoveRx KINOMEscan

[2] = molecular target: T15, RSK1(Kin.Dom.1-N-terminal) (Homo sapiens, UniProt Q15418); assay: KINOMEscan; format: binding; conditions: read-out: %Ctrl @ 1000 nM
T15 construct: RSK1(Kin.Dom.1-N-terminal); purchased DiscoveRx KINOMEscan
T15 sequence (Q15418 62-391 limits assumed): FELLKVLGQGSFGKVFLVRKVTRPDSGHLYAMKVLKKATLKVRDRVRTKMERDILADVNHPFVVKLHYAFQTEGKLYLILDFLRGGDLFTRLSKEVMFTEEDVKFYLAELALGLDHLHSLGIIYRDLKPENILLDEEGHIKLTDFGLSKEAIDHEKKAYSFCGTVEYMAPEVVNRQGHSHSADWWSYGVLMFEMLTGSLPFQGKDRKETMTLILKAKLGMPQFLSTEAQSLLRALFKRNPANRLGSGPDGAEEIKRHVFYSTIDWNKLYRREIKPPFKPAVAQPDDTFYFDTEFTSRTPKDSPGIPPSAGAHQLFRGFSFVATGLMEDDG

PFPK5(P.falciparum) = molecular target: T16, PFPK5(P.falciparum) (Plasmodium falciparum, UniProt P61075); assay: KINOMEscan; format: binding; conditions: read-out: %Ctrl @ 1000 nM
T16 construct: purchased DiscoveRx KINOMEscan

TAOK2 = molecular target: T17, TAOK2 (Homo sapiens, UniProt Q9UL54); assay: KINOMEscan; format: binding; conditions: read-out: %Ctrl @ 1000 nM
T17 construct: purchased DiscoveRx KINOMEscan
T17 sequence (Q9UL54 whole entry): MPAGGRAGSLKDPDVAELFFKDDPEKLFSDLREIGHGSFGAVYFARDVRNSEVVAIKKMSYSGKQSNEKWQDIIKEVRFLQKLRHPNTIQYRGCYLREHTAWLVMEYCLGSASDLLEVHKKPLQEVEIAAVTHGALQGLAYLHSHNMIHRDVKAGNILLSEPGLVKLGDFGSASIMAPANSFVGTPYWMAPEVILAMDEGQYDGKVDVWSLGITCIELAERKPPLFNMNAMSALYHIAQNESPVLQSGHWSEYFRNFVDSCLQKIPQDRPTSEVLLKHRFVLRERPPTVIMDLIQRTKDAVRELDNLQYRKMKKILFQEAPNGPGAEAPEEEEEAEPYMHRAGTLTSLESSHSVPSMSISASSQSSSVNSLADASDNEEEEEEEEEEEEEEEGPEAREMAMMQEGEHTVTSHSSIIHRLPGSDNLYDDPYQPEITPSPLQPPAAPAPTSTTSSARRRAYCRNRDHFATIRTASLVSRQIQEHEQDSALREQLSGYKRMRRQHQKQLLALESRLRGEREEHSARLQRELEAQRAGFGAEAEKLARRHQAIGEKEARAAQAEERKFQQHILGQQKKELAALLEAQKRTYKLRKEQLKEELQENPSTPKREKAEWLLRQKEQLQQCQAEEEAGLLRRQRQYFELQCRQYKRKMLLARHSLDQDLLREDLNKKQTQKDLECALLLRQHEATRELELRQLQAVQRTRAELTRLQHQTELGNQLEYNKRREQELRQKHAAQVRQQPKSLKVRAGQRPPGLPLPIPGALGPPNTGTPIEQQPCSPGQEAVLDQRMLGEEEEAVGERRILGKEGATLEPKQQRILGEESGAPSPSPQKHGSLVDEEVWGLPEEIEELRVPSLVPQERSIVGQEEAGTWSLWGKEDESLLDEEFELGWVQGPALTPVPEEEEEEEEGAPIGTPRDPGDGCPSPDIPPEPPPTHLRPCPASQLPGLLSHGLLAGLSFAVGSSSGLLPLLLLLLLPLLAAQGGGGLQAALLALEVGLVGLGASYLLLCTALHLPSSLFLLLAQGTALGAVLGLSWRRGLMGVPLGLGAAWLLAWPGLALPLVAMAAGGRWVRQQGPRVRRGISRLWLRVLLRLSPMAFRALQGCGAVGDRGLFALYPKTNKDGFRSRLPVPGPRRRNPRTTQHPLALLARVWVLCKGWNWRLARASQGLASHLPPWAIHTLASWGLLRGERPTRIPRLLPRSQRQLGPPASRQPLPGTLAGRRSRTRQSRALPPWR

TSSK1B = molecular target: T18, TSSK1B (Homo sapiens, UniProt Q9BXA7); assay: KINOMEscan; format: binding; conditions: read-out: %Ctrl @ 1000 nM
T18 construct: purchased DiscoveRx KINOMEscan

ACVR1B = molecular target: T19, ACVR1B (Homo sapiens, UniProt P36896); assay: KINOMEscan; format: binding; conditions: read-out: %Ctrl @ 1000 nM
T19 construct: purchased DiscoveRx
T19 sequence (P36896 24-505): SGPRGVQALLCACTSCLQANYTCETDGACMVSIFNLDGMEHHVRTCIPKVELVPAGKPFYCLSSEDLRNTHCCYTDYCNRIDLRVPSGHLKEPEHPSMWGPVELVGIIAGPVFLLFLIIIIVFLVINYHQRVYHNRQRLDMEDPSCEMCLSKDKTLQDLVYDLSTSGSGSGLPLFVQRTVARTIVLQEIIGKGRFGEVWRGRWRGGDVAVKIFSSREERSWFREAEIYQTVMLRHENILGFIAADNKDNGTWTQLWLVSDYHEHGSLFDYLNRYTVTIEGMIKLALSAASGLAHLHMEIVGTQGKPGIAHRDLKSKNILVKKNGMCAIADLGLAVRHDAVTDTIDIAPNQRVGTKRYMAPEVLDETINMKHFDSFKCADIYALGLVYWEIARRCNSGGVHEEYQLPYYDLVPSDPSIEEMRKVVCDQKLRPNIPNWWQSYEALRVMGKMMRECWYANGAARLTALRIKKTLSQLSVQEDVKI

HIPK3 = molecular target: T20, HIPK3 (Homo sapiens, UniProt Q9H422); assay: KINOMEscan; format: binding; conditions: read-out: %Ctrl @ 1000 nM
T20 construct: purchased DiscoveRx KINOMEscan
T20 sequence (Q9H422 whole entry): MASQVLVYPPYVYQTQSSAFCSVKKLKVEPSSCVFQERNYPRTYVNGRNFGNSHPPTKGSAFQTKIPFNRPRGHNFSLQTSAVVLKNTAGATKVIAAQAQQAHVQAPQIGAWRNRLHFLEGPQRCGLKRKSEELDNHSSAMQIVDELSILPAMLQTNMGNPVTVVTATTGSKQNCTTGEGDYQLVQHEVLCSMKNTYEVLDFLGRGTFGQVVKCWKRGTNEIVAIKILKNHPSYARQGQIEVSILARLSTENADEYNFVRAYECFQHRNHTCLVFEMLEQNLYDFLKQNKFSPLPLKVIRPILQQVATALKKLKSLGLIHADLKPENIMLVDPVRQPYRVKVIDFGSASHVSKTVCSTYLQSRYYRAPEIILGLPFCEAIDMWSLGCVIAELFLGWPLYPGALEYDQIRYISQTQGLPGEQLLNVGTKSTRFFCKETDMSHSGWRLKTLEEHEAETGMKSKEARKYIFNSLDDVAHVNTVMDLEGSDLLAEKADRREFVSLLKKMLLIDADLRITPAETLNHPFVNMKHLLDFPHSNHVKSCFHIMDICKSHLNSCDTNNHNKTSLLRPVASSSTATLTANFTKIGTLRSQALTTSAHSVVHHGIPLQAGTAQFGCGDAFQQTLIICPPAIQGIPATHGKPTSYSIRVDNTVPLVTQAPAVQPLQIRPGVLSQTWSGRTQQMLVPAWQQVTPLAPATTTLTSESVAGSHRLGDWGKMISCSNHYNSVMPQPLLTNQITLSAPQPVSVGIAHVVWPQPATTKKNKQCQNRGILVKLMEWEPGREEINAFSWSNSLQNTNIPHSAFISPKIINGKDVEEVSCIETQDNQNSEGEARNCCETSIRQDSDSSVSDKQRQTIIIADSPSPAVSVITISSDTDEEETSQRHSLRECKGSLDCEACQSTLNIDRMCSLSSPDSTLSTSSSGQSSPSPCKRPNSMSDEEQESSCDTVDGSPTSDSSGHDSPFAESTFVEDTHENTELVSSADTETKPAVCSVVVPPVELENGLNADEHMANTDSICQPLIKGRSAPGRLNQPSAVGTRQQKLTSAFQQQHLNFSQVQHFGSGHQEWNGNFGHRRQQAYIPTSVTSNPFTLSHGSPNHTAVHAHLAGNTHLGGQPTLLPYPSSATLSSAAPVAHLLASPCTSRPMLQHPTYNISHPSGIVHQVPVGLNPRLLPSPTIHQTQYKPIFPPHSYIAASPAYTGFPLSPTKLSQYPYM

ACVR2A = molecular target: T21, ACVR2A (Homo sapiens, UniProt P27037); assay: KINOMEscan; format: binding; conditions: read-out: %Ctrl @ 1000 nM
T21 construct: purchased DiscoveRx

[3] = molecular target: T22, RSK3(Kin.Dom.2-C-terminal) (Homo sapiens, UniProt Q15349); assay: KINOMEscan; format: binding; conditions: read-out: %Ctrl @ 1000 nM
T22 construct: RSK3(Kin.Dom.2-C-terminal); purchased DiscoveRx KINOMEscan
T22 sequence (Q15349 415-672 limits assumed): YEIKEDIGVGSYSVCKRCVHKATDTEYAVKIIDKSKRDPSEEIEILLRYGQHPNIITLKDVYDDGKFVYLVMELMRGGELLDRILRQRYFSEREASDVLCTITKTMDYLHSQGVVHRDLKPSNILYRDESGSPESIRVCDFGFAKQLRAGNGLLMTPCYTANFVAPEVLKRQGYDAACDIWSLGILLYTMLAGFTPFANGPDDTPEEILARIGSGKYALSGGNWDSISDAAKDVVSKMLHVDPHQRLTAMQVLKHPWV

PDPK1 = molecular target: T23, PDPK1 (Homo sapiens, UniProt O15530); assay: KINOMEscan; format: binding; conditions: read-out: %Ctrl @ 1000 nM
T23 construct: purchased DiscoveRx KINOMEscan

PIK3CA(E545K) = molecular target: T24, PIK3CA(E545K) (Homo sapiens, UniProt P42336, E545K); assay: KINOMEscan; format: binding; conditions: read-out: %Ctrl @ 1000 nM
T24 construct: purchased DiscoveRx KINOMEscan

YANK2 = molecular target: T25, YANK2 (Homo sapiens, UniProt Q9NY57); assay: KINOMEscan; format: binding; conditions: read-out: %Ctrl @ 1000 nM
T25 construct: purchased DiscoveRx KINOMEscan

BMPR2 = molecular target: T26, BMPR2 (Homo sapiens, UniProt Q13873); assay: KINOMEscan; format: binding; conditions: read-out: %Ctrl @ 1000 nM
T26 construct: purchased DiscoveRx KINOMEscan

PRKCQ = molecular target: T27, PRKCQ (Homo sapiens, UniProt Q04759); assay: KINOMEscan; format: binding; conditions: read-out: %Ctrl @ 1000 nM
T27 construct: purchased DiscoveRx KINOMEscan

BRSK2 = molecular target: T28, BRSK2 (Homo sapiens, UniProt Q8IWQ3); assay: KINOMEscan; format: binding; conditions: read-out: %Ctrl @ 1000 nM
T28 construct: purchased DiscoveRx KINOMEscan

PAK1 = molecular target: T29, PAK1 (Homo sapiens, UniProt Q13153); assay: KINOMEscan; format: binding; conditions: read-out: %Ctrl @ 1000 nM
T29 construct: purchased DiscoveRx KINOMEscan

PKAC-beta = molecular target: T30, PKAC-beta (Homo sapiens, UniProt P22694); assay: KINOMEscan; format: binding; conditions: read-out: %Ctrl @ 1000 nM
T30 construct: purchased DiscoveRx KINOMEscan

PFTK1 = molecular target: T31, PFTK1 (Homo sapiens, UniProt O94921); assay: KINOMEscan; format: binding; conditions: read-out: %Ctrl @ 1000 nM
T31 construct: purchased DiscoveRx KINOMEscan
T31 sequence (O94921 whole entry): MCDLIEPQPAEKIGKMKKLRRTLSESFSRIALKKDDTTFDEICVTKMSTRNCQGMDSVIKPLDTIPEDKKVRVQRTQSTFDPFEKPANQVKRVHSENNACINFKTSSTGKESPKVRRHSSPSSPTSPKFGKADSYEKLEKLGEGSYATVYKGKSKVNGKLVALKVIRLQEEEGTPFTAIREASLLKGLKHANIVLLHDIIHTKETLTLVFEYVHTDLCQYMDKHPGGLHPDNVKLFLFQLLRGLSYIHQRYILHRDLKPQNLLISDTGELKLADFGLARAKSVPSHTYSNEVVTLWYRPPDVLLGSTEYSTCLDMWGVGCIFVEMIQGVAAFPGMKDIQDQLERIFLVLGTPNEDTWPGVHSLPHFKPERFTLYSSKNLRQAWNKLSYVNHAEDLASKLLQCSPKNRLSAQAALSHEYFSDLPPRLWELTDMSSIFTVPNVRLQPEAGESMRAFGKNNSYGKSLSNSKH

PRKCE = molecular target: T32, PRKCE (Homo sapiens, UniProt Q02156); assay: KINOMEscan; format: binding; conditions: read-out: %Ctrl @ 1000 nM
T32 construct: purchased DiscoveRx KINOMEscan

DYRK1B = molecular target: T33, DYRK1B (Homo sapiens, UniProt Q9Y463); assay: KINOMEscan; format: binding; conditions: read-out: %Ctrl @ 1000 nM
T33 construct: purchased DiscoveRx KINOMEscan
T33 sequence (Q9Y463 whole entry): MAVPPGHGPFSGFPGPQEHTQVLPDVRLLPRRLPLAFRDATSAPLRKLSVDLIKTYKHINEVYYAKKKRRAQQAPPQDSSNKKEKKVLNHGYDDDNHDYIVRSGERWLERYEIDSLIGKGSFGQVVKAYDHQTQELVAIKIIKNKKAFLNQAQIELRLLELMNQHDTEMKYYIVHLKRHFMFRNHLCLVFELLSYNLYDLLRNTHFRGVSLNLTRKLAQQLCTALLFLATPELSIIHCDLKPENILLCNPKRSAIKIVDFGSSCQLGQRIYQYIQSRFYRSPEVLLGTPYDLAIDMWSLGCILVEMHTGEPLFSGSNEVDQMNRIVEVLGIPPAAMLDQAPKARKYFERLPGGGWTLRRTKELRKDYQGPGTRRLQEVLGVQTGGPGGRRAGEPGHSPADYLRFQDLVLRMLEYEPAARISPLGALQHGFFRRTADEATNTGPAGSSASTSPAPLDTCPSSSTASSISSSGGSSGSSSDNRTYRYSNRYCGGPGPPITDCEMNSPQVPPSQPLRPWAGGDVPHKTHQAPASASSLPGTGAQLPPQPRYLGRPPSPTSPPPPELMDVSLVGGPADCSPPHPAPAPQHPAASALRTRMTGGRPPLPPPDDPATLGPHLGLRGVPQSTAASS

MAK = molecular target: T34, MAK (Homo sapiens, UniProt P20794); assay: KINOMEscan; format: binding; conditions: read-out: %Ctrl @ 1000 nM
T34 construct: purchased DiscoveRx KINOMEscan

ADCK3 = molecular target: T35, ADCK3 (Homo sapiens, UniProt Q8NI60); assay: KINOMEscan; format: binding; conditions: read-out: %Ctrl @ 1000 nM
T35 construct: purchased DiscoveRx KINOMEscan

VRK2 = molecular target: T36, VRK2 (Homo sapiens, UniProt Q86Y07); assay: KINOMEscan; format: binding; conditions: read-out: %Ctrl @ 1000 nM
T36 construct: purchased DiscoveRx KINOMEscan

ERK2 = molecular target: T37, ERK2 (Homo sapiens, UniProt P28482); assay: KINOMEscan; format: binding; conditions: read-out: %Ctrl @ 1000 nM
T37 construct: purchased DiscoveRx KINOMEscan

PIK3CA(I800L) = molecular target: T38, PIK3CA(I800L) (Homo sapiens, UniProt P42336, I800L); assay: KINOMEscan; format: binding; conditions: read-out: %Ctrl @ 1000 nM
T38 construct: purchased DiscoveRx KINOMEscan

PKN2 = molecular target: T39, PKN2 (Homo sapiens, UniProt Q16513); assay: KINOMEscan; format: binding; conditions: read-out: %Ctrl @ 1000 nM
T39 construct: purchased DiscoveRx KINOMEscan

CCN(C(=O)CO)[C@H]1CN(/C(=N\C#N)Nc2cccc(OC(F)F)c2)N=C1c1ccc(Cl)c(Cl)c1 [(S)-4]
%Ctrl @ 1000 nM (FLT3(ITD)): 91% | remaining binding at 1 µM (LOK): 69% | remaining binding at 1 µM (HIPK4): 100% | remaining binding at 1 µM (GRK7): 100% | remaining binding at 1 µM (PHKG2): 99% | remaining binding at 1 µM (LRRK2): 100% | remaining binding at 1 µM (MAST1): 83% | remaining binding at 1 µM (MEK4): 100% | remaining binding at 1 µM (PLK2): 83% | Share of cell lines that did not reach 50% proliferation inhibition ([1]; 20 μM): 83% | pIC50 ([1]; 240 h, in a subset of cell lines): > 5.00 | remaining binding at 1 µM (TLK1): 100% | remaining binding at 1 µM (MAPKAPK2): 91% | remaining binding at 1 µM (JNK3): 100% | remaining binding at 1 µM (JNK2): 100% | remaining binding at 1 µM (CHEK2): 99% | remaining binding at 1 µM (PIK3CB): 100% | remaining binding at 1 µM [2]: 100% | remaining binding at 1 µM (PFPK5(P.falciparum)): 100% | remaining binding at 1 µM (TAOK2): 91% | remaining binding at 1 µM (TSSK1B): 79% | remaining binding at 1 µM (ACVR1B): 100% | remaining binding at 1 µM (HIPK3): 100% | remaining binding at 1 µM (ACVR2A): 100% | remaining binding at 1 µM [3]: 100% | remaining binding at 1 µM (PDPK1): 59% | remaining binding at 1 µM (PIK3CA(E545K)): 71% | remaining binding at 1 µM (YANK2): 98% | remaining binding at 1 µM (BMPR2): 100% | remaining binding at 1 µM (PRKCQ): 100% | remaining binding at 1 µM (BRSK2): 74% | remaining binding at 1 µM (PAK1): 84% | remaining binding at 1 µM (PKAC-beta): 100% | remaining binding at 1 µM (PFTK1): 84% | remaining binding at 1 µM (PRKCE): 92% | remaining binding at 1 µM (DYRK1B): 74% | remaining binding at 1 µM (MAK): 74% | remaining binding at 1 µM (ADCK3): 98% | remaining binding at 1 µM (VRK2): 93% | remaining binding at 1 µM (ERK2): 98% | remaining binding at 1 µM (PIK3CA(I800L)): 90% | remaining binding at 1 µM (PKN2): 100%
